Residues, ends and D or L forms follow the SMILES beside them.
How the values were obtained:
[1] = system: 6-OHDA induced nigral-striatal lesion; assay: 6-OHDA induced nigral-striatal lesion, apomorphine-induced contralateral rotations; assay type: in vivo, Wistar rats; conditions: 1 mg (mg/kg) i.p. 2 hours post lesion; 7 days post-lesion, apomorphine 0.1 mg/kg; n=5; vehicle 290±18 or 292±21
Method: Twenty male Wistar rats (280-310 g) were used. After exposing the skull, 6-OHDA (8 μg in a base of 2 μl 0.9% saline containing 1% ascorbic acid) was administered into the right medial forebrain bundle (MFB) using co-ordinates AP +4.7 mm, R 1.6 mmv −8 mm under 3% halothane anaesthesia. 6-OHDA was injected through a 25G needle connected via a polyethylene catheter to a 100 μl Hamilton syringe. The 6-OHDA was infused by a microdialysis infusion pump at a rate of 0.5 μl/min. The needle was left in the brain for a further 3 minutes before being slowly withdrawn. The skin was sutured with 2.0 silk and the rats were allowed to recover from anaesthesia. The rats were housed in a holding room with free access to food and water at all times except during behavioural testing.
Cyclic PG was dissolved in saline. Four different doses of cPG (0, 0.1, 0.5, 1 mg/kg, Bachem) were administered intraperitoneally 2 hours post lesion.
At 7 days post-lesion, rats were injected with 0.1 mg/kg apomorphine and the number of contralateral rotations/hour was recorded and calculated using a computerised Rotameter (St Diego Instruments). Experimenter was blinded from the treatment groups.
Cyclic(tri(prolylglycyl)) was dissolved in saline solution. Four different doses of Cyclic(tri(prolylglycyl)) (0, 0.1, 0.5, 1 mg/kg, NeuroBiomed) were administered intraperitoneally 2 hours post lesion.
Cyclic Glycyl-2-Methyl Proline (cGMeP) was dissolved in saline solution. Four different doses of cGMeP (0, 0.1, 0.5, 1 mg/kg, NeuroBiomed) were administered intraperitoneally 2 hours post lesion.

[2] = system: cerebellar microexplants (P4); assay: Glutamate induced neuronal death in cerebellar microexplants (P4); assay type: cell-based, Wistar rats; conditions: for neuron number compared to the normal control group: a further lower dose; for recovery from glutamate-induced neurotoxicity: lower doses 10-100 nM, simultaneously with glutamate
Method: Cerebellar Cell Culture Preparing and Coating of Cover Slips
Ten coverslips were placed into a large petri dish and washed in 70% alcohol for 5 minutes, then washed with Millipore H2O. The coverslips were air dried, then coated with Poly-D-Lysine (1 mg/ml stock solution in PBS, 90-100 μl) and incubated for 2 hours at 34° C.
Postnatal day 4 Wistar rats were used for the study. Rats were placed in ice for 1 minute, the heads were decapitated and the cerebellum removed on ice. Cerebellum tissue was placed in 1 ml of 0.65% glucose supplemented PBS (10 μl 65% stock D (+)glucose/1 ml PBS) in a large petri dish, chopped up into smaller sections and triturate with a 1 ml insulin syringe via a 23 G (0.4 mm) needle, and then squirted back into the glucose solution on the large petri dish. The tissue was sieved through (125 μm pore size gaze) and centrifuged (2 minutes at 60 g) two times for a medium exchange into serum-free BSA-supplemented START V medium (Biochrom). The second centrifugation step was done with 1 ml of START V medium. The microexplants were reconstituted into 500 μl of START V medium and put on ice.
Cultivation and Fixation of Cerebellar Cells
Two hours after PDL-coating, the slides were washed with Millipore H2O and air dried. Each slide was placed into a small 35 mm petri dish and 40 μl of START V/cell suspension added. The tissue was incubated for 2 hours at 34° C. (settlement period). START V-medium (1 ml) was then added to the petri dish and cultivated at 34° C./5% CO2/100% humidity for 48 hours. Cells were rinsed in PBS and then fixed for 2-3 minutes in increasing concentrations of paraformaldehyde (500 μl of 0.4% PFA was applied; then 1.2% PFA; then 3% PFA and finally 4% PFA—all fixation solutions contain 0.2% glutardialdehyde). Finally, the microexplants were rinsed in PBS.
(§1) 10 μl of toxin (L-glutamate-100 mM in Millipore water) was applied simultaneously with cPG (from bachem, 10 mM stock prepared in PBS and diluted to final concentrations between 1-100 nM) for Study 1. A delay in administration of cPG at 6 hours after glutamate treatment was performed for Study 2.
as §1, with “cyclic(tri(prolylglycyl)) (which was obtained from NeuroBiomed, San Jose, California),” for “cPG (from bachem,”, “cyclic(tri(prolylglycyl))” for “cPG”
as §1, with “cyclic Glycyl-2-Methyl Proline (obtained NeuroBiomed, San Jose California),” for “cPG (from bachem,”

[3] = 1-100 nM given 6 hours after the glutamate treatment, compared to vehicle
[4] = administered simultaneously with glutamate, 1-100 nM, glutamate alone 85% loss of neurons

| Compound | number of contralateral rotations/hour [1] [rotations/hour] | improvement, recovery from glutamate induced neurotoxicity [2, 3] | neuron number compared to the normal control group [2] | reduction of glutamate induced neuronal death [2, 4] [%] | recovery from glutamate-induced neurotoxicity [2] | recovery from glutamate induced neurotoxicity [2, 3] | glutamate induced neuronal death [2, 4] |
| --- | --- | --- | --- | --- | --- | --- | --- |
| O=C1NCC(=O)N2CCC[C@H]2C(=O)NCC(=O)N2CCC[C@H]2C(=O)NCC(=O)N2CCCC12 (stereo partly drawn) [c(PG)3, cyclic (glycyl-L-prolylglycyl-L-prolylglycyl-L-prolyl)] (HELM PEPTIDE1{G.P.G.P.G.[O=C(C1CCCN1[*:1])[*:2]]}$PEPTIDE1,PEPTIDE1,1:R1-6:R2$$$V2.0) | 172±69 | approximately 43% | significant increase | 57 | significant recovery | – | – |
| O=C1NCC(=O)N2CCC[C@@H]12 [cPG, cyclic Prolyl Glycine] | 154±64 | – | significant increase | – | significant recovery | significantly recovery | significantly reduced |

— patent publication US12070458B2, “Therapeutic agent composition and method of use, for treatment of mild congnitive impairment, depression, and psychological disorders” (priority 2018, dated 2024)
